Results taken from patent US20250019373A1, “ARYL OR HETEROARYL DERIVATIVE, AND PHARMACEUTICAL COMPOSITION COMPRISING SAME AS ACTIVE INGREDIENT FOR PREVENTION OR TREATMENT OF KINASE-RELATED DISEASES” (VORONOI INC., priority 2021, published 2025).

These molecules were tested on HT-29 cells (assay: Cell necrosis inhibitory activity under necroptosis-inducing conditions (TNF-α, Z-VAD-FMK, LCL161) in HT-29 cells, Cell Titer-Glo). Conditions: Homo sapiens, 100 ng/mL TNF-α + 25 μM Z-VAD-FMK + Smac mimetic LCL161, 24 hours, cell viability.
Assay type: cell-based
Description: To evaluate the cell necrosis inhibitory activity of the compound according to the present invention, an experiment was conducted as follows.
To evaluate the efficacy of inhibiting cell necrosis under TNF-α-mediated cell death-inducing conditions, a HT-29 cell line (Korean Cell Line Bank Accession No. #30038) was cultured in RPMI-1640 (HyClone #SH3027.01) medium containing 10% fetal bovine serum (FBS) and 1% penicillin/streptomycin to analyze cell viability. More specifically, for testing, the cell line was seeded in a 96-well flat bottom plate (Corning #3903) at a concentration of 10,000 cells/well and incubated at 37° C. under a 5% CO2 condition for 24 hours. Each well was treated with 100 ng/mL TNF-α, 25 μM pan-caspase inhibitor (Z-VAD-FMK, Selleckchem #S8102), and 10 µM Smac mimetic LCL161 (Selleckchem #S7009) and allowed to react for 10 minutes. The compounds of Examples were treated at 11 concentrations (the highest concentration being 0.1 μM or 1 μM) with a 3-fold concentration gradient, and as a control, dimethyl sulfoxide (DMSO) was treated at a concentration of 0.05% (v/v), which is the same as those when the compounds were treated. The treated cells were incubated for 24 hours. To confirm the degree of cell viability, 100 μL of Cell Titer-Glo (Promega #G7573) was added to the medium of the cultured cells and cultured for additional 10 minutes, and then luminescence was measured using a microplate reader. Based on the […] of control cells that were not treated with the compound, the degree of cell necrosis inhibitory activity was calculated according to the treatment concentration of each compound. Here, the concentration at which the cell necrosis inhibitory activity was 50% was determined as an EC50 (nM) value and calculated using Prism (ver. 8.4.3 #GraphPad) software.

Row | SMILES | EC50
1 | COc1ncc(-c2ccn3nc(N)nc3c2)cc1NC(=O)N1OCC[C@H]1c1ccccc1 [Example 47, (S)-N-(5-(2-amino-[1,2,4]triazolo[1,5-a]pyridin-7-yl)-2-methoxypyridin-3-yl)-3-phenylisoxazolidine-2-carboxamide] | 0.5 nM
2 | Cc1ncc(-c2ccn3nc(NC(=O)C4CC4)nc3c2)cc1NC(=O)N1OCC[C@H]1c1ccccc1 [Example 48, (S)-N-(5-(2-(cyclopropanecarboxamido)-[1,2,4]triazolo[1,5-a]pyridin-7-yl)-2-methylpyridin-3-yl)-3-phenylisoxazolidine-2-carboxamide] | 0.4 nM
3 | CC(=O)Nc1nc2cc(-c3cnc(C)c(NC(=O)N4OCC[C@H]4c4ccccc4)c3)ccn2n1 [Example 49, (S)-N-(5-(2-acetamido-[1,2,4]triazolo[1,5-a]pyridin-7-yl)-2-methylpyridin-3-yl)-3-phenylisoxazolidine-2-carboxamide] | 1.3 nM
4 | Cc1ncc(-c2ccn3nc(N)nc3c2)cc1NC(=O)N1OCC[C@H]1c1ccccc1 [Example 50, (S)-N-(5-(2-amino-[1,2,4]triazolo[1,5-a]pyridin-7-yl)-2-methylpyridin-3-yl)-3-phenylisoxazolidine-2-carboxamide] | 1.3 nM
5 | Cc1ccc([C@@H]2CCON2C(=O)Nc2cc(-c3ccc4nc(N)nn4c3)cnc2C)cn1 [Example 51, (S)-N-(5-(2-amino-[1,2,4]triazolo[1,5-a]pyridin-6-yl)-2-methylpyridin-3-yl)-3-(6-methylpyridin-3-yl)isoxazolidine-2-carboxamide] | 23.3 nM
6 | Cc1ncc(-c2ccc3nc(N)nn3c2)cc1NC(=O)N1OCC[C@H]1c1cc(F)cc(Cl)c1 [Example 52, (S)-N-(5-(2-amino-[1,2,4]triazolo[1,5-a]pyridin-6-yl)-2-methylpyridin-3-yl)-3-(3-chloro-5-fluorophenyl)isoxazolidine-2-carboxamide] | 2.8 nM
7 | COc1ncc(-c2ccn3nc(N)nc3c2)cc1NC(=O)N1OCC[C@H]1c1cccc(F)c1 [Example 53, (S)-N-(5-(2-amino-[1,2,4]triazolo[1,5-a]pyridin-7-yl)-2-methoxypyridin-3-yl)-3-(3-fluorophenyl)isoxazolidine-2-carboxamide] | 0.5 nM
8 | COc1ncc(-c2ccn3nc(N)nc3c2)cc1NC(=O)N1OCC[C@H]1c1cc(F)cc(F)c1 [Example 54, (S)-N-(5-(2-amino-[1,2,4]triazolo[1,5-a]pyridin-7-yl)-2-methoxypyridin-3-yl)-3-(3,5-difluorophenyl)isoxazolidine-2-carboxamide] | 0.4 nM
9 | Cc1ncc(-c2ccc3nc(N)nn3c2)cc1NC(=O)N1OCC[C@H]1c1ccc(F)c(F)c1 [Example 55, (S)-N-(5-(2-amino-[1,2,4]triazolo[1,5-a]pyridin-6-yl)-2-methylpyridin-3-yl)-3-(3,4-difluorophenyl)isoxazolidine-2-carboxamide] | 0.6 nM
10 | Cc1ncc(-c2ccc3nc(N)nn3c2)cc1NC(=O)N1OCC[C@H]1c1ccc(F)cc1 [Example 56, (S)-N-(5-(2-amino-[1,2,4]triazolo[1,5-a]pyridin-6-yl)-2-methylpyridin-3-yl)-3-(4-fluorophenyl)isoxazolidine-2-carboxamide] | 0.7 nM
11 | COc1ncc(-c2ccc3nc(N)nn3c2)cc1NC(=O)N1OCC[C@H]1c1cc(F)cc(F)c1 [Example 57, (S)-N-(5-(2-amino-[1,2,4]triazolo[1,5-a]pyridin-6-yl)-2-methoxypyridin-3-yl)-3-(3,5-difluorophenyl)isoxazolidine-2-carboxamide] | 4.4 nM
12 | COc1ncc(-c2ccc3nc(N)nn3c2)cc1NC(=O)N1OCC[C@H]1c1cccc(F)c1 [Example 58, (S)-N-(5-(2-amino-[1,2,4]triazolo[1,5-a]pyridin-6-yl)-2-methoxypyridin-3-yl)-3-(3-fluorophenyl)isoxazolidine-2-carboxamide] | 3.9 nM
13 | Cc1ccc(-c2ccc3nc(N)nn3c2)cc1NC(=O)N1OCC[C@H]1c1cc(F)cc(F)c1 [Example 59, (S)-N-(5-(2-amino-[1,2,4]triazolo[1,5-a]pyridin-6-yl)-2-methylphenyl)-3-(3,5-difluorophenyl)isoxazolidine-2-carboxamide] | 0.7 nM
14 | Cc1ccc(-c2ccc3nc(N)nn3c2)cc1NC(=O)N1OCC[C@H]1c1cccc(F)c1 [Example 60, (S)-N-(5-(2-amino-[1,2,4]triazolo[1,5-a]pyridin-6-yl)-2-methylphenyl)-3-(3-fluorophenyl)isoxazolidine-2-carboxamide] | 0.4 nM
15 | Cc1ccc(-c2ccn3nc(N)nc3c2)cc1NC(=O)N1OCC[C@H]1c1ccccc1 [Example 61, (S)-N-(5-(2-amino-[1,2,4]triazolo[1,5-a]pyridin-7-yl)-2-methylphenyl)-3-phenylisoxazolidine-2-carboxamide] | 0.2 nM
16 | Cc1ccc(-c2ccn3nc(N)nc3c2)cc1NC(=O)N1OCC[C@H]1c1cccc(F)c1 [Example 62, (S)-N-(5-(2-amino-[1,2,4]triazolo[1,5-a]pyridin-7-yl)-2-methylphenyl)-3-(3-fluorophenyl)isoxazolidine-2-carboxamide] | 0.2 nM
17 | Cc1ccc(-c2ccn3nc(N)nc3c2)cc1NC(=O)N1OCC[C@H]1c1cc(F)cc(F)c1 [Example 63, (S)-N-(5-(2-amino-[1,2,4]triazolo[1,5-a]pyridin-7-yl)-2-methylphenyl)-3-(3,5-difluorophenyl)isoxazolidine-2-carboxamide] | 0.2 nM
18 | Cc1ccc(-c2ccn3nc(N)nc3c2)cc1NC(=O)N1OCC[C@H]1c1ccc(F)cc1 [Example 64, (S)-N-(5-(2-amino-[1,2,4]triazolo[1,5-a]pyridin-7-yl)-2-methylphenyl)-3-(4-fluorophenyl)isoxazolidine-2-carboxamide] | 0.2 nM
19 | Cc1ccc(-c2ccn3nc(N)nc3c2)cc1NC(=O)N1OCC[C@H]1c1ccc(Cl)cc1 [Example 65, (S)-N-(5-(2-amino-[1,2,4]triazolo[1,5-a]pyridin-7-yl)-2-methylphenyl)-3-(4-chlorophenyl)isoxazolidine-2-carboxamide] | 0.2 nM
20 | Cc1ccc(-c2ccc3nc(N)nn3c2)cc1NC(=O)N1OCC[C@H]1c1ccc(F)cc1 [Example 66, (S)-N-(5-(2-amino-[1,2,4]triazolo[1,5-a]pyridin-6-yl)-2-methylphenyl)-3-(4-fluorophenyl)isoxazolidine-2-carboxamide] | 0.4 nM
21 | Cc1ccc(-c2ccc3nc(N)nn3c2)cc1NC(=O)N1OCC[C@H]1c1ccc(Cl)cc1 [Example 67, (S)-N-(5-(2-amino-[1,2,4]triazolo[1,5-a]pyridin-6-yl)-2-methylphenyl)-3-(4-chlorophenyl)isoxazolidine-2-carboxamide] | 0.4 nM
22 | Cc1ncc(-c2ccc3nc(N)nn3c2)cc1NC(=O)N1OCC[C@H]1c1ccc(C#N)cc1 [Example 68, (S)-N-(5-(2-amino-[1,2,4]triazolo[1,5-a]pyridin-6-yl)-2-methylpyridin-3-yl)-3-(4-cyanophenyl)isoxazolidine-2-carboxamide] | 3.9 nM
23 | Cc1ncc(-c2ccc3nc(N)nn3c2)cc1NC(=O)N1OCC[C@H]1c1ccc(Cl)cc1 [Example 69, (S)-N-(5-(2-amino-[1,2,4]triazolo[1,5-a]pyridin-6-yl)-2-methylpyridin-3-yl)-3-(4-chlorophenyl)isoxazolidine-2-carboxamide] | 0.4 nM
24 | Cc1ncc(-c2ccn3nc(N)nc3c2)cc1NC(=O)N1OCC[C@H]1c1ccc(C#N)cc1 [Example 70, (S)-N-(5-(2-amino-[1,2,4]triazolo[1,5-a]pyridin-7-yl)-2-methylpyridin-3-yl)-3-(4-cyanophenyl)isoxazolidine-2-carboxamide] | 5.2 nM
25 | Cc1ccc(-c2ccc3nc(N)nn3c2)cc1NC(=O)N1OCC[C@H]1c1ccc(C#N)cc1 [Example 91, (S)-N-(5-(2-amino-[1,2,4]triazolo[1,5-a]pyridin-6-yl)-2-methylphenyl)-3-(4-cyanophenyl)isoxazolidine-2-carboxamide] | 0.9 nM
26 | Cc1ccc(-c2ccn3nc(N)nc3c2)cc1NC(=O)N1OCC[C@H]1c1ccc(C#N)cc1 [Example 92, (S)-N-(5-(2-amino-[1,2,4]triazolo[1,5-a]pyridin-7-yl)-2-methylphenyl)-3-(4-cyanophenyl)isoxazolidine-2-carboxamide] | 0.6 nM
27 | Cc1ccc(-c2ccc3nc(NC(=O)C4CC4)sc3c2)cc1NC(=O)N1OCC[C@H]1c1ccc(C#N)cc1 [Example 93, (S)-3-(4-cyanophenyl)-N-(5-(2-(cyclopropanecarboxamido)benzo[d]thiazol-6-yl)-2-methylphenyl)isoxazolidine-2-carboxamide] | 0.2 nM
28 | Cc1ccc(-c2ccc3nc(NC(=O)C4CC4)sc3n2)cc1NC(=O)N1OCC[C@H]1c1ccc(C#N)cc1 [Example 94, (S)-3-(4-cyanophenyl)-N-(5-(2-(cyclopropanecarboxamido)thiazolo[5,4-b]pyridin-5-yl)-2-methylphenyl)isoxazolidine-2-carboxamide] | 0.3 nM
29 | Cc1ccc(-c2ccc3nc(N)cn3n2)cc1NC(=O)N1OCC[C@H]1c1ccccc1 [Example 95, (S)-N-(5-(2-aminoimidazo[1,2-b]pyridazin-6-yl)-2-methylphenyl)-3-phenylisoxazolidine-2-carboxamide] | 7.5 nM
